Data as given in patent US10231980B2, “Cortexolone 17alpha-benzoate for use in the treatment of tumours” (COSMO TECHNOLOGIES LTD., priority 2014, dated 2019).
pIC50: −log10 of the molar value. Where two headings read alike, the source gives them in different places.

Columns and labels:
HT29 = experiment: MTT colorimetric assay on epithelial intestinal cancer cells; format: cell-based; details: human, 72 h
Description: The experiment was performed to test and define anticancer activity in vitro of Cortexolone 17α-benzoate and cortexolone 17α-valerate, 21-propionate on cell lines representatives of epithelial intestinal tumours, namely HT29. The experiment method consisted in: • 1. Monolayer HT-29 cells were plated in: 96-wells plates at the density of 2×10^4 cells/mL. The cells plated were kept at 37° C. in 5% CO2 and left to attach for 24 h. • 2. […] After 72 h of treatment, the MTT colorimetric assay was performed.

7 cancer cell lines = experiment: Therapeutic index over a panel of cancer cell lines; format: cell-based; details: average over the cancer cell lines of Table VII
Description: (§1) The compound toxicity was determined as follow:
(§2) Therapeutic Index=Safety/Potency=IC50 stimulated PBMC/IC50 cancer cell

MCF7 = experiment: In vitro proliferation / cytotoxic assay on breast cancer cells (Examples 14, 25)
Description: (§3) Data shown in Table I were fitted through sigmoidal dose response curves and analyzed using Prizm statistical.
For the cytotoxic assay, cells were seeded in 96-well flat bottom culture plates in media containing charcoal stripped serum. After 24 hours, test compounds were added to the cells. DMSO was used as the vehicle negative control and RU486 as the positive control. After 72 hour incubation, cells were harvested and lysed to determine cell viability using the Cell Titer Glow assay.

stimulated PBMC [1] = experiment: IC50 on stimulated (actively dividing) PBMC; format: cell-based, human; details: PBMC Stim; Table IV
PC3 = experiment: ATP-dependent cell viability assay (Cell Titer Glo), Example 12; details: for pIC50: Homo sapiens
Source text: as §3

LNCaP = experiment: as above; details: for pIC50: Homo sapiens
Source text: as §3

MiaPaca2 = experiment: as above; details: for pIC50: Homo sapiens
Source text: as §3

Panc1 = experiment: as above; details: for pIC50: Homo sapiens
Source text: as §3

stimulated PBMC [2] = experiment: IC50 on stimulated (actively dividing) PBMC; format: cell-based, human; details: Homo sapiens, PBMC, PBMC STIMULATED; Table IV; read-out: In vitro proliferation IC50
Description: as §1, §2

[3] = tested on: MiaPaca-2 pancreatic tumor xenograft; experiment: Human pancreatic tumor xenograft in nude mice; format: in vivo
Description: Cortexolone 17α-benzoate and Cyproterone Acetate were separately diluted in DMSO/2-hydroxypropyl β-cyclodextrin (vehicle).
The test was carried out comparing the anti-tumor activity of cortexolone 17α-benzoate at two different dosages (8.0 mg/kg, corresponding approximately at 230 μM, and 40 mg/kg, corresponding approximately at 1150 μM), versus the vehicle (i.e. 0.4% (v/v) tween 80 and 0.5% (w/v) carboxymethylcellulose in normal saline) and versus the comparator Cyproterone Acetate at two different dosages (7.4 mg/kg and 37 mg/kg).
1×10^6 MiaPaca-2 cells suspended in matrigel were sub-cutaneously injected into 6 week old athymic nude mice.
The treatment with the tested compounds, with the vehicle and with the comparative compound, was initiated after the tumor volume has reached 50 mm^3 after transplantation. All compounds were injected 100 μL/mouse of low dose solution (approximately 230 μM) or 100 μL/mouse of high dose solution (approximately 1150 μM) of cortexolone 17α-benzoate, vehicle and Cyproterone Acetate, respectively. Compounds and controls were administered subcutaneously daily for 28 days.
Tumors were measured every 4 days with a digital caliper.
The results are plotted in FIG. 1 as average change in tumor volume relative to the start of treatment. Tumor volume was calculated according to the formula 0.5236(r1)^2(r2) where r1<r2.
Error bars are the SEM for 7 to 10 mice per treatment group. P values were calculated according to the Student's t test.
Cortexolone 17α-valerate-21-propionate and Cyproterone Acetate were separately diluted in DMSO/2-hydroxypropyl β-cyclodextrin (vehicle).
The test was carried out comparing the anti-tumor activity of cortexolone 17α-valerate-21-propionate at two different dosages (approximately 8.6 mg/kg and 43 mg/kg) versus the vehicle (i.e. 0.4% (v/v) tween 80 and 0.5% (w/v) carboxymethylcellulose in normal saline) and versus the comparator Cyproterone Acetate at two different dosages (7.4 mg/kg and 37 mg/kg).
1×10^6 MiaPaca-2 cells suspended in matrigel were subcutaneously injected into 6 week old athymic nude mice.
The treatment with the tested compound, with the vehicle and with the comparative compound was initiated after the tumor has reached a volume of 50 mm^3 after implantation, injecting subcutaneously 100 μL/mouse of low dose solution (approximately 230 μM) or 100 μL/mouse of high dose solution (approximately 1150 μM) of cortexolone 17α-valerate-21-propionate, vehicle and Cyproterone Acetate, respectively. Compounds and controls were administered subcutaneously daily for 28 days. Tumors were measured every 4 days with a digital caliper.
The results are plotted in FIG. 2 as average change in tumor volume relative to the start of treatment. Tumor volume was calculated according to the formula 0.5236(r1)^2(r2) where r1<r2.
Cyproterone acetate (CPA), a well-known anti-androgen, was used as control. Briefly 1×10^6 MiaPaca2 cells suspended in matrigel were subcutaneously (sc) injected into 6 week old male athymic nude mice. Tumors were measured every 4 days with a digital caliper. Tumor volume was calculated according to the formula: 0.5236(r1)2(r2) where r1<r2. Treatment with CB-03-06 and control compounds were initiated after the tumor had reached 50 mm^3. Compounds diluted in DMSO/2-hydroxypropyl b-cyclodextrin (vehicle) were subcutaneously injected daily (100 microL/mouse) at the concentration of 40 mg/Kg daily for 28 consecutive days.

MiaPaca2 (AR low) = experiment: ATP-dependent proliferation assay with 10 nM DHT, pancreatic cancer cells (Examples 3, 4, 7); details: for TI on Resting PBMC: IC50 resting PBMC / IC50 MiaPaca2; for TI on Stimulated PBMC: IC50 stimulated PBMC / IC50 MiaPaca2
Description: (§4) The experimental method consisted of: • 1. […] After 24 hrs, 10 nM DHT (dihydrotestosterone) with or without anti-androgen compounds, or DMSO vehicle (negative control) was added to the cultures. • 3.
(§5) Data from Experiment 1 were fitted through sigmoidal dose response curves and analyzed using Prizm statistical analysis software. […] The results from 2 sets of experiments follow.
(§6) Data from Experiment 1 was fitted through sigmoidal dose response curves and analyzed using Prizm statistical analysis software.

Panc1 (AR+) = experiment: as above; details: for TI on Resting PBMC: IC50 resting PBMC / IC50 Panc1; for TI on Stimulated PBMC: IC50 stimulated PBMC / IC50 Panc1
Description: as §4, §5, §6

[4] = PC-3, 72 h, PC3, Tables I and II, titrated 3 uM to 200 uM, 3 days
[5] = PC-3, read-out: In vitro proliferation IC50, PC3, Table IV
[6] = LNCaP, read-out: In vitro proliferation IC50
[7] = Experiment 1, 0 = higher toxicity in PBMC

CCCC(=O)OC1(C(=O)CO)CCC2C3CCC4=CC(=O)CC[C@]4(C)C3=CC[C@@]21C (single isomer, unassigned) [CB-03-04]
Therapeutic Index = IC50 resting PBMC/IC50 cancer cell (HT29): 7
Therapeutic Index = IC50 stimulated PBMC/IC50 cancer cell (HT29): 7
Therapeutic Index = IC50 stimulated PBMC/IC50 cancer cell, AVERAGE (7 cancer cell lines): 4
Therapeutic Index = IC50 resting PBMC/IC50 cancer cell (MCF7; human, 3 days): 4
Therapeutic Index = IC50 stimulated PBMC/IC50 cancer cell (MCF7; human, 3 days): 4
Therapeutic Index = IC50 resting PBMC/IC50 cancer cell (stimulated PBMC [1]): 1
pIC50 (PC3; [4]): 3.87
pIC50 (PC3; [5]): 3.85
Therapeutic Index = IC50 resting PBMC/IC50 cancer cell (PC3; human, 3 days): 3
Therapeutic Index = IC50 stimulated PBMC/IC50 cancer cell (PC3; human, 3 days): 3
pIC50 (LNCaP; LNCaP, 72 h): 4.34
pIC50 (LNCaP; [6]): 4.34
Therapeutic Index = IC50 resting PBMC/IC50 cancer cell (LNCaP; human, 3 days): 8
Therapeutic Index = IC50 stimulated PBMC/IC50 cancer cell (LNCaP; human, 3 days): 8
Therapeutic Index = IC50 resting PBMC/IC50 cancer cell (MiaPaca2; human, 3 days): 2
Therapeutic Index = IC50 stimulated PBMC/IC50 cancer cell (MiaPaca2; human, 3 days): 2
Therapeutic Index = IC50 resting PBMC/IC50 cancer cell (Panc1; human, 3 days): 1
Therapeutic Index = IC50 stimulated PBMC/IC50 cancer cell (Panc1; human, 3 days): 1

CCCC(=O)OCC(=O)[C@@]1(OC(=O)CCC)CCC2C3CCC4=CC(=O)CC[C@]4(C)C3CC[C@@]21C (stereo partly drawn) [CB-03-03]
pIC50 (stimulated PBMC [2]): 3.85
Therapeutic Index = IC50 stimulated PBMC/IC50 cancer cell, AVERAGE (7 cancer cell lines): 4
pIC50 (MCF7; Homo sapiens, MCF7, read-out: In vitro proliferation IC50): 4.49
Therapeutic Index = IC50 resting PBMC/IC50 cancer cell (MCF7; human, 3 days): 4
Therapeutic Index = IC50 stimulated PBMC/IC50 cancer cell (MCF7; human, 3 days): 4
Therapeutic Index = IC50 resting PBMC/IC50 cancer cell (stimulated PBMC [1]): 1
pIC50 (PC3; [4]): 4.28
pIC50 (PC3; [5]): 4.28
Therapeutic Index = IC50 resting PBMC/IC50 cancer cell (PC3; human, 3 days): 3
Therapeutic Index = IC50 stimulated PBMC/IC50 cancer cell (PC3; human, 3 days): 3
pIC50 (LNCaP; LNCaP, 72 h): 4.80
pIC50 (LNCaP; [6]): 4.80
Therapeutic Index = IC50 resting PBMC/IC50 cancer cell (LNCaP; human, 3 days): 9
Therapeutic Index = IC50 stimulated PBMC/IC50 cancer cell (LNCaP; human, 3 days): 9
pIC50 (MiaPaca2; MIA PaCa-2, 72 h): 4.52
pIC50 (MiaPaca2; MIA PaCa-2, read-out: In vitro proliferation IC50): 4.52
Therapeutic Index = IC50 resting PBMC/IC50 cancer cell (MiaPaca2; human, 3 days): 5
Therapeutic Index = IC50 stimulated PBMC/IC50 cancer cell (MiaPaca2; human, 3 days): 5
pIC50 (Panc1; PANC-1, 72 h): 4.15
pIC50 (Panc1; PANC-1, read-out: In vitro proliferation IC50): 4.15
Therapeutic Index = IC50 resting PBMC/IC50 cancer cell (Panc1; human, 3 days): 2
Therapeutic Index = IC50 stimulated PBMC/IC50 cancer cell (Panc1; human, 3 days): 2

CCC(=O)O[C@]1(C(=O)CO)CC[C@H]2[C@@H]3CCC4=CC(=O)CC[C@]4(C)[C@H]3CC[C@@]21C [CB-03-01, cortexolone 17α-propionate]
Therapeutic Index = IC50 stimulated PBMC/IC50 cancer cell, AVERAGE (7 cancer cell lines): 0
Therapeutic Index = IC50 resting PBMC/IC50 cancer cell (MCF7; human, 3 days): 0
Therapeutic Index = IC50 stimulated PBMC/IC50 cancer cell (MCF7; human, 3 days): 0
Therapeutic Index = IC50 resting PBMC/IC50 cancer cell (stimulated PBMC [1]): 1
pIC50 (PC3; [4]): 3.72
pIC50 (PC3; [5]): 3.72
Therapeutic Index = IC50 resting PBMC/IC50 cancer cell (PC3; human, 3 days): 0
Therapeutic Index = IC50 stimulated PBMC/IC50 cancer cell (PC3; human, 3 days): 0
pIC50 (LNCaP; LNCaP, 72 h): 4.48
pIC50 (LNCaP; [6]): 4.48
Therapeutic Index = IC50 resting PBMC/IC50 cancer cell (LNCaP; human, 3 days): 0
Therapeutic Index = IC50 stimulated PBMC/IC50 cancer cell (LNCaP; human, 3 days): 0
Therapeutic Index = IC50 resting PBMC/IC50 cancer cell (MiaPaca2; human, 3 days): 0
Therapeutic Index = IC50 stimulated PBMC/IC50 cancer cell (MiaPaca2; human, 3 days): 0
Therapeutic Index = IC50 resting PBMC/IC50 cancer cell (Panc1; human, 3 days): 0
Therapeutic Index = IC50 stimulated PBMC/IC50 cancer cell (Panc1; human, 3 days): 0

CC(=O)O[C@]1(C(C)=O)CC[C@H]2[C@@H]3C=C(Cl)C4=CC(=O)[C@@H]5C[C@@H]5[C@]4(C)[C@H]3CC[C@@]21C [Cyproterone Acetate, reference compound]
Therapeutic Index = IC50 stimulated PBMC/IC50 cancer cell, AVERAGE (7 cancer cell lines): 1
Therapeutic Index = IC50 resting PBMC/IC50 cancer cell (MCF7; MCF7, Table IV): 1
Therapeutic Index = IC50 stimulated PBMC/IC50 cancer cell (MCF7; MCF7, Table VII): 1
pancreatic tumor size relative to the size when treatment was initiated ([3]; Example 5, MiaPaca-2 xenograft, nude mice, SC daily 28 days, high dose of cortexolone 17α-benzoate (40 mg/kg)): 12 fold
pancreatic tumor size relative to the initial tumor size ([3]; Example 6, MiaPaca-2 xenograft, nude mice, SC daily 28 days, for the time of treatment): ≥ 12 fold
pancreatic tumor size relative to the initial size ([3]; Example 22, MiaPaca2 xenograft, male nude mice, 40 mg/Kg SC daily 28 days, treatment period): 12 fold
Median survival ([3]; Example 22, MiaPaca2 xenograft, 40 mg/Kg SC daily 28 days): 40 days
Therapeutic Index = IC50 resting PBMC/IC50 cancer cell (stimulated PBMC [1]): 1
pIC50 (PC3; [4]): 4.05
pIC50 (PC3; [5]): 4.05
Therapeutic Index = IC50 resting PBMC/IC50 cancer cell (PC3; PC3, Table IV): 1
Therapeutic Index = IC50 stimulated PBMC/IC50 cancer cell (PC3; PC3, Table VII): 1
pIC50 (LNCaP; LNCaP, 72 h): 4.66
pIC50 (LNCaP; [6]): 4.66
Therapeutic Index = IC50 resting PBMC/IC50 cancer cell (LNCaP; LNCaP, Table IV): 3
Therapeutic Index = IC50 stimulated PBMC/IC50 cancer cell (LNCaP; LNCaP, Table VII): 3
Therapeutic Index = IC50 resting PBMC/IC50 cancer cell (MiaPaca2; MiaPaca2, Table IV): 2
Therapeutic Index = IC50 stimulated PBMC/IC50 cancer cell (MiaPaca2; MiaPaca2, Table VII): 2
Therapeutic Index = IC50 resting PBMC/IC50 cancer cell (Panc1; Panc1, Table IV): 1
Therapeutic Index = IC50 stimulated PBMC/IC50 cancer cell (Panc1; Panc1, Table VII): 1
TI on Resting PBMC (MiaPaca2 (AR low); [7]): 0
TI on Resting PBMC (MiaPaca2 (AR low); Experiment 2): 1
TI on Stimulated PBMC (MiaPaca2 (AR low); [7]): 2
TI on Stimulated PBMC (MiaPaca2 (AR low); Experiment 2): 2
TI on Resting PBMC (Panc1 (AR+); [7]): 0
TI on Resting PBMC (Panc1 (AR+); Experiment 2): 4
TI on Stimulated PBMC (Panc1 (AR+); [7]): 1
TI on Stimulated PBMC (Panc1 (AR+); Experiment 2): 1
